{"source": "ChEMBL document CHEMBL1128478", "about": "“Structure-activity relationships of the potent combined endothelin-A/endothelin-B receptor antagonist Ac-DDip16-Leu-Asp-Ile-Ile-Trp21: development of endothelin-B receptor selective antagonists” (J Med Chem, 1995)", "note": "Square brackets hold non-standard residues; d marks the D form. Peptide text beside a SMILES is read from it. * marks the point of attachment. Ala(1-Adamantyl) = N[C@@H](CC12CC3CC(CC(C3)C1)C2)C(=O)O; Diphenylacetyl = O=C(C(c1ccccc1)c1ccccc1)*; Dip = N[C@H](C(=O)O)C(c1ccccc1)c1ccccc1; Cyclohexanecarbonyl = O=C(C1CCCCC1)*; Piv = CC(C)(C)C(=O)*"}
{"test_system": "not listed separately", "assay": "Relative affinities against endothelin A receptor (rabbit) and endothelin B receptor (rat)", "design": "reference not given here"}
{"smiles": "CC[C@H](C)[C@H](NC(=O)[C@H](CC(=O)O)NC(=O)[C@H](CC(C)C)NC(=O)[C@@H](NC(=O)C1CCCCC1)C(c1ccccc1)c1ccccc1)C(=O)N[C@H](C(=O)N[C@@H](Cc1c[nH]c2ccccc12)C(=O)O)[C@@H](C)CC", "note": "(Cyclohexanecarbonyl-[Dip]LDIIW-OH)", "Ratio": 17.8}
{"smiles": "CC[C@H](C)[C@H](NC(=O)[C@H](CC(=O)O)NC(=O)[C@H](CC(C)C)NC(=O)[C@@H](NC(=O)C(c1ccccc1)c1ccccc1)C(c1ccccc1)c1ccccc1)C(=O)N[C@H](C(=O)N[C@@H](Cc1c[nH]c2ccccc12)C(=O)O)[C@@H](C)CC", "note": "(Diphenylacetyl-[Dip]LDIIW-OH)", "Ratio": 2}
{"smiles": "CC[C@H](C)[C@H](NC(=O)[C@H](CC(=O)O)NC(=O)[C@H](CC(C)C)NC(=O)[C@@H](NC(=O)C(C)(C)C)C(c1ccccc1)c1ccccc1)C(=O)N[C@H](C(=O)N[C@@H](Cc1c[nH]c2ccccc12)C(=O)O)[C@@H](C)CC", "note": "(Piv-[Dip]LDIIW-OH)", "Ratio": 25}
{"target": "T1, Endothelin receptor type B (Rattus norvegicus, UniProt P21451)", "T1 sequence (P21451 whole entry)": "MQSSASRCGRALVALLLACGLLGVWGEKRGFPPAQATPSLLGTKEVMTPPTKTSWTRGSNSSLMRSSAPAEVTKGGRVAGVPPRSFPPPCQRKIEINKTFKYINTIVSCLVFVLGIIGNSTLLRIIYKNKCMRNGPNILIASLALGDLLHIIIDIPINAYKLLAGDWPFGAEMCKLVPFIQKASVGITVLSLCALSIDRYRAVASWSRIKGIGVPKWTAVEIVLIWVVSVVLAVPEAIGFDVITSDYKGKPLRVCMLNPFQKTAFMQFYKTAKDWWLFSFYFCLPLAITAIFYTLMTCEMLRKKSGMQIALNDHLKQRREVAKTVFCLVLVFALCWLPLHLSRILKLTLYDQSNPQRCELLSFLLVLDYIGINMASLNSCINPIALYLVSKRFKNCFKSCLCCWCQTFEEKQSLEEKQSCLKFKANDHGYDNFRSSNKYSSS", "assay": "Binding affinity against endothelin B receptor rat cerebellar membranes.", "units": {"IC50": "nM"}}
{"smiles": "CC[C@H](C)[C@@H]1NC(=O)[C@H](CC(=O)O)NC(=O)[C@@H](NC(=O)[C@H](NC(C)=O)C(c2ccccc2)c2ccccc2)CSSC[C@@H](C(=O)N[C@@H](Cc2c[nH]c3ccccc23)C(=O)O)NC1=O", "IC50": "> 1000"}
{"smiles": "CC[C@H](C)[C@@H]1NC(=O)[C@H](CC(=O)O)NC(=O)[C@H](CC(C)C)NC(=O)[C@@H](C2c3ccccc3CCc3ccccc32)NC(=O)[C@H](Cc2c[nH]c3ccccc23)NC(=O)[C@H]([C@@H](C)CC)NC1=O", "IC50": "> 10000"}
{"smiles": "CC[C@H](C)[C@@H]1NC(=O)[C@H](CC(=O)O)NC(=O)[C@H](CC(C)C)NC(=O)[C@@H](C(c2ccccc2)c2ccccc2)NC(=O)[C@H](Cc2c[nH]c3ccccc23)NC(=O)[C@H]([C@@H](C)CC)NC1=O", "IC50": 1600}
{"smiles": "CC[C@H](C)[C@H](NC(=O)[C@H](CC(=O)O)NC(=O)[C@H](CC(C)C)NC(=O)[C@H](NC(C)=O)C(c1ccccc1)c1ccccc1)C(=O)N[C@H](C(=O)N[C@@H](Cc1ccccc1)C(=O)O)[C@@H](C)CC", "IC50": 6800}
{"smiles": "CC[C@H](C)[C@H](NC(=O)[C@H](CC1CCCCC1)NC(=O)[C@H](CC(=O)O)NC(=O)[C@H](CC(C)C)NC(=O)[C@H](NC(C)=O)C(c1ccccc1)c1ccccc1)C(=O)N[C@@H](Cc1c[nH]c2ccccc12)C(=O)O", "IC50": 210}
{"smiles": "CC[C@H](C)[C@H](NC(=O)[C@H](Cc1ccc(O)cc1)NC(=O)[C@H](CC(C)C)NC(=O)[C@H](NC(C)=O)C(c1ccccc1)c1ccccc1)C(=O)N[C@H](C(=O)N[C@@H](Cc1c[nH]c2ccccc12)C(=O)O)[C@@H](C)CC", "IC50": 80}
{"smiles": "CC[C@H](C)[C@H](NC(=O)[C@H](CC(=O)O)NC(=O)[C@H](CC(C)C)NC(=O)[C@H](NC(C)=O)C(c1ccccc1)c1ccccc1)C(=O)N[C@@H](Cc1ccccc1)C(=O)N[C@@H](Cc1c[nH]c2ccccc12)C(=O)O", "IC50": 7500}
{"smiles": "CC[C@H](C)[C@H](NC(=O)[C@H](CC(=O)O)NC(=O)[C@@H](Cc1ccccc1)NC(=O)[C@@H](NC(C)=O)C(c1ccccc1)c1ccccc1)C(=O)N[C@H](C(=O)N[C@@H](Cc1c[nH]c2ccccc12)C(=O)O)[C@@H](C)CC", "IC50": 740}
{"smiles": "CC[C@H](C)[C@H](NC(=O)[C@H](CCCCN)NC(=O)[C@H](CC(=O)O)NC(=O)[C@H](CC(C)C)NC(=O)[C@H](NC(C)=O)C(c1ccccc1)c1ccccc1)C(=O)N[C@@H](Cc1c[nH]c2ccccc12)C(=O)O", "IC50": 3700}
{"smiles": "CC[C@H](C)[C@@H]1NC(=O)[C@H](CC(=O)O)NC(=O)[C@H](CC(C)C)NC(=O)[C@@H](Cc2ccccc2)NC(=O)[C@H](Cc2c[nH]c3ccccc23)NC(=O)[C@H]([C@@H](C)CC)NC1=O", "IC50": "> 10000"}
{"smiles": "CC[C@H](C)[C@H](NC(=O)[C@H](C)NC(=O)[C@H](CC(=O)O)NC(=O)[C@H](CC(C)C)NC(=O)[C@H](NC(C)=O)C(c1ccccc1)c1ccccc1)C(=O)N[C@@H](Cc1c[nH]c2ccccc12)C(=O)O", "IC50": 330}
{"smiles": "CC[C@H](C)[C@H](NC(=O)[C@H](CC(=O)O)NC(=O)[C@H](CC(C)C)NC(=O)[C@H](NC(C)=O)C(c1ccccc1)c1ccccc1)C(=O)N[C@@H](CC(C)C)C(=O)N[C@@H](Cc1c[nH]c2ccccc12)C(=O)O", "IC50": 730}
{"smiles": "CC[C@H](C)[C@H](NC(=O)[C@H](CC(=O)O)NC(=O)[C@H](CC(C)C)NC(=O)[C@H](CC12CC3CC(CC(C3)C1)C2)NC(C)=O)C(=O)N[C@H](C(=O)N[C@@H](Cc1c[nH]c2ccccc12)C(=O)O)[C@@H](C)CC", "note": "(Ac-[Ala(1-Adamantyl)]LDIIW-OH)", "IC50": 2000}
{"smiles": "CC[C@H](C)[C@H](NC(=O)[C@H](C)NC(=O)[C@H](CC(C)C)NC(=O)[C@@H](NC(C)=O)C(c1ccccc1)c1ccccc1)C(=O)N[C@H](C(=O)N[C@@H](Cc1c[nH]c2ccccc12)C(=O)O)[C@@H](C)CC", "note": "(Ac-[Dip]LAIIW-OH)", "IC50": 16}
{"smiles": "CC[C@H](C)[C@H](NC(=O)[C@H](CC(=O)O)NC(=O)[C@H](CC(C)C)NC(=O)[C@@H](NC(=O)C1CCCCC1)C(c1ccccc1)c1ccccc1)C(=O)N[C@H](C(=O)N[C@@H](Cc1c[nH]c2ccccc12)C(=O)O)[C@@H](C)CC", "note": "(Cyclohexanecarbonyl-[Dip]LDIIW-OH)", "IC50": 350}
{"smiles": "CC[C@H](C)[C@H](NC(=O)[C@H](CC(=O)O)NC(=O)[C@H](CC(C)C)NC(=O)[C@@H](NC(=O)C(c1ccccc1)c1ccccc1)C(c1ccccc1)c1ccccc1)C(=O)N[C@H](C(=O)N[C@@H](Cc1c[nH]c2ccccc12)C(=O)O)[C@@H](C)CC", "note": "(Diphenylacetyl-[Dip]LDIIW-OH)", "IC50": 1300}
{"smiles": "CC[C@H](C)[C@H](NC(=O)[C@H](CC(=O)O)NC(=O)[C@H](CC(C)C)NC(=O)[C@@H](NC(=O)C(C)(C)C)C(c1ccccc1)c1ccccc1)C(=O)N[C@H](C(=O)N[C@@H](Cc1c[nH]c2ccccc12)C(=O)O)[C@@H](C)CC", "note": "(Piv-[Dip]LDIIW-OH)", "IC50": 400}
{"target": "T1, Endothelin receptor type B", "assay": "Inhibition of SRTX-6c stimulated arachidonic acid release in CHO cells expressing rat ET- B receptors", "units": {"IC50": "nM"}}
{"smiles": "CC[C@H](C)[C@H](NC(=O)[C@H](CC(=O)O)NC(=O)[C@H](CC(C)C)NC(=O)[C@@H](NC(=O)C1CCCCC1)C(c1ccccc1)c1ccccc1)C(=O)N[C@H](C(=O)N[C@@H](Cc1c[nH]c2ccccc12)C(=O)O)[C@@H](C)CC", "note": "(Cyclohexanecarbonyl-[Dip]LDIIW-OH)", "IC50": 560}
{"smiles": "CC[C@H](C)[C@H](NC(=O)[C@H](CC(=O)O)NC(=O)[C@H](CC(C)C)NC(=O)[C@@H](NC(=O)C(c1ccccc1)c1ccccc1)C(c1ccccc1)c1ccccc1)C(=O)N[C@H](C(=O)N[C@@H](Cc1c[nH]c2ccccc12)C(=O)O)[C@@H](C)CC", "note": "(Diphenylacetyl-[Dip]LDIIW-OH)", "IC50": 9300}
{"smiles": "CC[C@H](C)[C@H](NC(=O)[C@H](CC(=O)O)NC(=O)[C@H](CC(C)C)NC(=O)[C@@H](NC(=O)C(C)(C)C)C(c1ccccc1)c1ccccc1)C(=O)N[C@H](C(=O)N[C@@H](Cc1c[nH]c2ccccc12)C(=O)O)[C@@H](C)CC", "note": "(Piv-[Dip]LDIIW-OH)", "IC50": 890}
